≈ marks a conversion by molar mass, not a printed value.
What was measured:
Assay type in all cases: functional
[1] = Cytotoxicity against human 9KB cells; details: read-out: ED50 (the source's name)
[2] = Cytotoxicity against mouse 9PS cells; details: read-out: ED50 (the source's name)
[3] = In vivo cytotoxicity against mouse 3PS cells at 300 mg/kg

Compound | EC50 [1] | EC50 [2] | T/C [3]
C[C@@H]1C(=O)O[C@@H]2C[C@@]1(C)[C@@H]1C(=O)[C@]3(O)O[C@]14[C@@]2(C)OC(=O)[C@@]4(O)CC[C@H]1[C@H]3CC=C2CC=CC(=O)[C@@]21C | 12 µg/mL (≈ 23.4 µM) | 0.89 µg/mL (≈ 1.74 µM) | 
C[C@@]12C[C@H]3OC(=O)[C@@H]1CO[C@]14O[C@@]5([C@H]2C1=O)[C@@]3(C)OC(=O)[C@@]5(O)CC[C@H]1[C@H]4C[C@@H]2O[C@@]23CC=CC(=O)[C@]13C [5-ALPHA,6-ALPHA-EPOXYPHYSALIN B] | 0.43 µg/mL (≈ 0.817 µM) | 1.6 µg/mL (≈ 3.04 µM) | 
C[C@]12C(=O)C=CCC1=CC[C@@H]1[C@@H]2CC[C@]2(O)C(=O)O[C@@]3(C)[C@H]4C[C@]5(C)[C@@H](CO[C@@]16O[C@@]32[C@H]5C6=O)C(=O)O4 [PHYSALIN B] | 3.1 µg/mL (≈ 6.07 µM) | 0.01 µg/mL (≈ 0.0196 µM) | 137%

Source: ChEMBL document CHEMBL1151375, “Potential antitumor agents. XVII. physalin B and 25,26-epidihydrophysalin C from Witheringia coccoloboides” (1981)
